Reference: patent US10662203B2, “Pyrido[2,3-b]indole compounds for the treatment and prophylaxis of bacterial infection” (Hoffmann-La Roche Inc., priority 2017, dated 2020)

Legend:
Assay in all cases: 50% growth inhibitory concentration (IC50) determination assay
Type in all cases: cell-based
Conditions in all cases: Iso-Sensitest broth, 0.098 = detection limit
A. baumannii (ATCC17978) = tested on: A. baumannii (ATCC17978)
Method: (§1) Stock compounds in DMSO were serially two-fold diluted (range from 50 to 0.097 μM final concentration) in 384 wells microtiter plates and inoculated with 49 μL the bacterial suspension in Iso-Sensitest broth medium to have a final cell concentration of ˜5×10^5 CFU/mL in a final volume/well of 50 μL/well. Microtiter plates were incubated at 35±2° C. Bacterial cell growth was determined with the measurement of optical density at λ=600 nm each 20 minutes over a time course of 16 h. […] GP-6 (Example 4.131 disclosed in WO 2012/125746 A1) was used as the reference compound in Table 6-8. […] The data of IC50 over S. aureus (ATCC29213), K. pneumoniae (ATCC10031), and A. baumannii (ATCC17978) are illustrated in Table 6.

S. aureus (ATCC29213) = tested on: S. aureus (ATCC29213)
Method: as §1

[1] = tested on: K. pneumoniae (ATCC10031)
Method: as §1

[2] = Acinetobacter baumannii, ATCC17978, A. baumannii ATCC17978

IC50 (A. baumannii (ATCC17978); [2]) [µM] | IC50 (S. aureus (ATCC29213); Staphylococcus aureus) [µM] | IC50 ([1]; Klebsiella pneumoniae) [µM] | IC50 (A. baumannii (ATCC17978); A. baumannii ATCC17978) [µM] | IC50 (S. aureus (ATCC29213)) [µM] | IC50 [1] [µM] | Structure (SMILES)
0.088 | < 0.098 | < 0.098 |  |  |  | CNc1cc(F)c(F)c2c1[nH]c1ncc(-c3cnc4c(c3)c(=O)c(C(=O)O)cn4C)c(N3CCC(F)(CN(C)C)C3)c12 (stereo not drawn) [Example 1.108]
0.049 | < 0.098 | < 0.098 |  |  |  | CNc1cc(F)c(F)c2c1[nH]c1ncc(-c3cnc4c(c3)c(=O)c(C(=O)O)cn4C)c(N3CCC(NC4CC4)C3)c12 (stereo not drawn) [Example 1.115]
0.151 | < 0.098 | < 0.098 |  |  |  | CNc1cc(F)c(F)c2c1[nH]c1ncc(-c3cnc4c(c3)c(=O)c(C(=O)O)cn4C)c(N3CCC(CNC4CC4)C3)c12 (stereo not drawn) [Example 1.137]
0.478 | < 0.098 | < 0.098 |  |  |  | CNc1cc(F)c(F)c2c1[nH]c1ncc(-c3cnc4c(c3)c(=O)c(C(=O)O)cn4[C@@H]3CCNC3)c(N3CCCC3)c12 [Example 1.156]
0.784 | < 0.098 | 0.224 |  |  |  | CNc1cc(F)c(F)c2c1[nH]c1ncc(-c3cnc4c(c3)c(=O)c(C(=O)O)cn4C)c(N3CC[C@@H](CN4CCOCC4)C3)c12 [Example 1.174]
0.353 | < 0.098 | 0.112 |  |  |  | CNc1cc(F)c(F)c2c1[nH]c1ncc(-c3cnc4c(c3)c(=O)c(C(=O)O)cn4N(C)C)c(N3CCOCC3)c12 [Example 1.180]
0.151 | < 0.098 | < 0.098 |  |  |  | CNc1cc(F)c(F)c2c1[nH]c1ncc(-c3cnc4c(c3)c(=O)c(C(=O)O)cn4NC)c(N3CC[C@H]4CCN(C)C4C3)c12 (stereo partly drawn) [Example 1.199]
0.201 | < 0.098 | < 0.098 |  |  |  | CNc1cc(F)c(F)c2c1[nH]c1ncc(-c3cnc4c(c3)c(=O)c(C(=O)O)cn4C)c(N3CCN(C4CC4)CC3)c12 [Example 1.204]
0.78 | < 0.098 | 0.16 |  |  |  | CNc1cc(F)c(F)c2c1[nH]c1ncc(-c3cnc4c(c3)c(=O)c(C(=O)O)cn4C)c(N3CCCC3)c12 [Example 1.208]
0.207 | 0.11 | < 0.098 |  |  |  | CNc1cc(F)c(F)c2c1[nH]c1ncc(-c3cnc4c(c3)c(=O)c(C(=O)O)cn4C)c(N3CCN(C)CC3)c12 [Example 1.226]
0.3 | 0.169 | < 0.098 |  |  |  | CCN1CCN(c2c(-c3cnc4c(c3)c(=O)c(C(=O)O)cn4C)cnc3[nH]c4c(NC)cc(F)c(F)c4c23)CC1 [Example 1.233]
0.821 | 0.283 | < 0.098 |  |  |  | CNc1cc(F)c(F)c2c1[nH]c1ncc(-c3cnc4c(c3)c(=O)c(C(=O)O)cn4C)c(N3CCN(C(C)C)CC3)c12 [Example 1.234]
0.308 | < 0.098 | < 0.098 |  |  |  | CNc1cc(F)c(F)c2c1[nH]c1ncc(-c3cnc4c(c3)c(=O)c(C(=O)O)cn4NC)c(N3CCC4(CCN4C)C3)c12 (stereo not drawn) [Example 1.238]
0.151 | < 0.098 | < 0.098 |  |  |  | CNc1cc(F)c(F)c2c1[nH]c1ncc(-c3cnc4c(c3)c(=O)c(C(=O)O)cn4NC)c(N3CCC4(CCCN4C)C3)c12 (stereo not drawn) [Example 1.240]
0.476 | < 0.098 | 0.14 |  |  |  | CNc1cc(F)c(F)c2c1[nH]c1ncc(-c3cnc4c(c3)c(=O)c(C(=O)O)cn4[C@@H](C)CO)c(N3CCO[C@@H](C)C3)c12 [Example 1.250]
0.111 | < 0.098 | < 0.098 |  |  |  | CNc1cc(F)c(F)c2c1[nH]c1ncc(-c3cnc4c(c3)c(=O)c(C(=O)O)cn4NC)c(N3CC4[C@H](CC[C@H]4N(C)C)C3)c12 (stereo partly drawn) [Example 1.284]
0.992 | < 0.098 | 0.167 |  |  |  | CNc1cc(F)c(F)c2c1[nH]c1ncc(-c3cnc4c(c3)c(=O)c(C(=O)O)cn4CCN(C)C)c(N3CCC(F)(F)C3)c12 [Example 2.02]

The remaining lines, values behind:

Structure (SMILES) | IC50 (A. baumannii (ATCC17978); [2]) [µM] | IC50 (S. aureus (ATCC29213); Staphylococcus aureus) [µM] | IC50 ([1]; Klebsiella pneumoniae) [µM] | IC50 (A. baumannii (ATCC17978); A. baumannii ATCC17978) [µM] | IC50 (S. aureus (ATCC29213)) [µM] | IC50 [1] [µM]
CNc1cc(F)cc2c1[nH]c1ncc(-c3cnc4c(c3)c(=O)c(C(=O)O)cn4C)c(N3CCC(CN(C)C4CC4)C3)c12 (stereo not drawn) [Example 1.99] | 0.771 | < 0.098 | < 0.098 |  |  | 
CNc1cc(F)cc2c1[nH]c1ncc(-c3cnc4c(c3)c(=O)c(C(=O)O)cn4C)c(N3CCC(C)(CN(C)C)C3)c12 (stereo not drawn) [Example 1.102] | 0.134 | < 0.098 | < 0.098 |  |  | 
CCNc1cc(F)c(F)c2c1[nH]c1ncc(-c3cnc4c(c3)c(=O)c(C(=O)O)cn4C)c(N3CCC(N(C)C)C3)c12 (stereo not drawn) [Example 1.104] | 0.137 | < 0.098 | < 0.098 |  |  | 
CNc1c(F)cc(F)c2c1[nH]c1ncc(-c3cnc4c(c3)c(=O)c(C(=O)O)cn4C)c(N3CCOCC3)c12 [Example 1.105] | 0.216 | 5.22 | < 0.098 |  |  | 
CNc1c(F)cc(F)c2c1[nH]c1ncc(-c3cnc4c(c3)c(=O)c(C(=O)O)cn4C3CCNC3)c(N(C)C)c12 (stereo not drawn) [Example 1.107] | 0.699 | 0.189 | < 0.098 |  |  | 
CNc1cc(F)cc2c1[nH]c1ncc(-c3cnc4c(c3)c(=O)c(C(=O)O)cn4C)c(N3CCC(F)(CN(C)C)C3)c12 (stereo not drawn) [Example 1.109] | 0.066 | < 0.098 | < 0.098 |  |  | 
CNc1cc(F)cc2c1[nH]c1ncc(-c3cnc4c(c3)c(=O)c(C(=O)O)cn4C)c(N3CC4[C@@H](C3)OCCN4C)c12 (stereo partly drawn) [Example 1.112] | 0.334 | < 0.098 | < 0.098 |  |  | 
CNc1cc(F)cc2c1[nH]c1ncc(-c3cnc4c(c3)c(=O)c(C(=O)O)cn4C)c(N3CCC(NC4CC4)C3)c12 (stereo not drawn) [Example 1.114] | 0.103 | < 0.098 | < 0.098 |  |  | 
CNc1cc(F)c(F)c2c1[nH]c1ncc(-c3cnc4c(c3)c(=O)c(C(=O)O)cn4C3CCN(C)C3)c(N(C)C)c12 (stereo not drawn) [Example 1.130] | 0.132 | < 0.098 | < 0.098 |  |  | 
CNc1cc(F)cc2c1[nH]c1ncc(-c3cnc4c(c3)c(=O)c(C(=O)O)cn4C)c(N3CCC(CNC4CC4)C3)c12 (stereo not drawn) [Example 1.136] | 0.172 | < 0.098 | < 0.098 |  |  | 
CNc1cc(F)c(F)c2c1[nH]c1ncc(-c3cnc4c(c3)c(=O)c(C(=O)O)cn4C)c(N3CCC(CN(C)CCOC)C3)c12 (stereo not drawn) [Example 1.142] | 0.195 | < 0.098 | < 0.098 |  |  | 
CNc1cc(F)c(F)c2c1[nH]c1ncc(-c3cnc4c(c3)c(=O)c(C(=O)O)cn4C)c(N3CC(CN(C)C)C(F)(F)C3)c12 (stereo not drawn) [Example 1.143] | 0.109 | < 0.098 | < 0.098 |  |  | 
CNc1cc(F)c(F)c2c1[nH]c1ncc(-c3cnc4c(c3)c(=O)c(C(=O)O)cn4C(C)CCO)c(N(C)C)c12 (stereo not drawn) [Example 1.145] | 0.341 | < 0.098 | 0.202 |  |  | 
CNc1cc(F)c(F)c2c1[nH]c1ncc(-c3cnc4c(c3)c(=O)c(C(=O)O)cn4CC3(O)CC3)c(N(C)C)c12 [Example 1.146] | 0.525 | < 0.098 | 0.411 |  |  | 
CNc1cc(F)c(F)c2c1[nH]c1ncc(-c3cnc4c(c3)c(=O)c(C(=O)O)cn4[C@@H]3CCNC3)c(N(C)C)c12 [Example 1.155] | 0.328 | 3.8 | < 0.098 |  |  | 
CNc1cc(F)c(F)c2c1[nH]c1ncc(-c3cnc4c(c3)c(=O)c(C(=O)O)cn4C)c(N3C[C@H](C)[C@@H](N(C)C)C3)c12 [Example 1.167] |  |  |  | 0.143 | < 0.098 | < 0.098
CNc1cc(F)c(F)c2c1[nH]c1ncc(-c3cnc4c(c3)c(=O)c(C(=O)O)cn4C)c(N3C[C@H](F)[C@@H](N(C)C)C3)c12 [Example 1.168] |  | < 0.098 | < 0.098 | 0.287 |  | 
CNc1cc(F)cc2c1[nH]c1ncc(-c3cnc4c(c3)c(=O)c(C(=O)O)cn4C)c(N3C[C@H](F)[C@@H](N(C)C)C3)c12 [Example 1.169] | 0.229 | < 0.098 | < 0.098 |  |  | 
CNc1cc(F)c(F)c2c1[nH]c1ncc(-c3cnc4c(c3)c(=O)c(C(=O)O)cn4CC(C)(C)N(C)C)c(N(C)C)c12 [Example 1.178] | 0.235 | < 0.098 | < 0.098 |  |  | 
CNc1cc(F)cc2c1[nH]c1ncc(-c3cnc4c(c3)c(=O)c(C(=O)O)cn4C)c(N3CCCN(C)CC3)c12 [Example 1.185] | 0.524 | 0.321 | < 0.098 |  |  | 
CNc1cc(F)cc2c1[nH]c1ncc(-c3cnc4c(c3)c(=O)c(C(=O)O)cn4NC)c(N3CC4[C@H](CCN4C)C3)c12 (stereo partly drawn) [Example 1.210] | < 0.098 | < 0.098 | < 0.098 |  |  | 
CNc1cc(F)c(F)c2c1[nH]c1ncc(-c3cnc4c(c3)c(=O)c(C(=O)O)cn4C)c(N3CC4[C@H](CC[C@H]4CN(C)C)C3)c12 (stereo partly drawn) [Example 1.218] | 0.497 | < 0.098 | < 0.098 |  |  | 
CNc1cc(F)c(F)c2c1[nH]c1ncc(-c3cnc4c(c3)c(=O)c(C(=O)O)cn4C)c(N3CC4[C@H](CCN4CCO)C3)c12 (stereo partly drawn) [Example 1.261] | 0.215 | < 0.098 | < 0.098 |  |  | 
CNc1cc(F)c(Cl)c2c1[nH]c1ncc(-c3cnc4c(c3)c(=O)c(C(=O)O)cn4C)c(N3CC[C@H]4CN(C)CC43)c12 (stereo partly drawn) [Example 1.270] | 0.048 | < 0.098 | < 0.098 |  |  | 
CNc1cc(Cl)cc2c1[nH]c1ncc(-c3cnc4c(c3)c(=O)c(C(=O)O)cn4C)c(N3CC4C(N(C)C)CO[C@@H]4C3)c12 (stereo partly drawn) [Example 1.277] | 0.48 | < 0.098 | < 0.098 |  |  | 
